Key:
[1] = test system: panel of 8 trained people; test: Sensory evaluation of taste properties (descriptive), samples in 4% w/w sucrose solution; format: in vivo; details: for Description (taste properties: sweet, licorice and sweet lingering): panel of 8 trained people
Experimental: A composition comprising Compound I was generated according to the methods described in Example 1. The composition was dissolved in a 4% w/w sucrose solution, at a final concentration of 30 ppm. A panel of 8 trained people evaluated the test solution, as well as samples comprising rebaudioside A, rebaudioside D, or rebaudioside M for taste properties (sweet, licorice and sweet lingering).

[2] = test system: panel of 8 trained people; test: Sensory evaluation of taste properties on a scale of −5 to 5 versus 4% w/w sucrose reference solution; format: in vivo; details: for tastes enhanced in the 4% sucrose base: 30 ppm in 4% sucrose base; for Licorice / Sweet / Sweet Lingering: 30 ppm in 4% w/w sucrose solution, scale −5 to 5 (−5 no effect, 5 extremely strong effect, 0 = 4% w/w sucrose reference)
Experimental: In another experiment, a composition comprising compound of formula I was generated according to the methods described in Example 1. The composition was dissolved in a 4% w/w sucrose solution. A panel of 8 trained people evaluated the test solutions for taste properties (sweet, licorice and sweet lingering) on a scale of −5 to 5 (−5 denoted no effect and 5 denoted extremely strong effect, 0 being the intensity of a reference water solution containing either (i) 4% w/w sucrose solution. The results are shown in the table below.

[3] = 30 ppm in 4% w/w sucrose solution

C=C1C[C@@]23CC[C@H]4[C@@](C)(CCC[C@@]4(C)C(=O)O[C@@H]4O[C@H](CO)[C@@H](O)[C@H](O)[C@H]4O)[C@@H]2CC[C@]1(O[C@@H]1O[C@H](CO)[C@@H](O)[C@H](O[C@@H]2O[C@H](CO)[C@@H](O)[C@H](O)[C@H]2O)[C@H]1O[C@@H]1O[C@H](CO)[C@@H](O)[C@H](O)[C@H]1O)C3 [Reb A, rebaudioside A]
Description (taste properties: sweet, licorice and sweet lingering) [1, 3]: Sweet, licorice, lingering, slightly
tastes enhanced in the 4% sucrose base [2]: enhancing sweet and sweet lingering tastes
Licorice [2]: 1.3
Sweet [2]: 1.5
Sweet Lingering [2]: 0.5

C=C1C[C@@]23CC[C@H]4[C@@](C)(CCC[C@@]4(C)C(=O)O[C@@H]4OC(CO[C@@H]5OC(CO)[C@@H](O)C(O)C5O)[C@@H](O)C(O)C4O)[C@@H]2CC[C@]1(O[C@@H]1OC(CO)[C@@H](O)C(O[C@@H]2OC(CO)[C@@H](O)C(O)C2O)C1O[C@@H]1OC(CO)[C@@H](O)C(O)C1O)C3 (some centres unmarked) [Compound I]
Description (taste properties: sweet, licorice and sweet lingering) [1, 3]: Sweet, licorice, lingering
Licorice [2]: 1.4
Sweet [2]: 1.1
Sweet Lingering [2]: 0.4
effect for licorice and sweet lingering tastes ([2]; dosage of 30 ppm in 4% sucrose base): without any significant effect
effect on sweet intensity in the 4% sucrose base ([2]; dosage of 30 ppm, 95% of confidence level): significantly enhanced

C=C1C[C@@]23CC[C@H]4[C@@](C)(CCC[C@@]4(C)C(=O)O[C@@H]4O[C@H](CO)[C@@H](O)[C@H](O[C@@H]5O[C@H](CO)[C@@H](O)[C@H](O)[C@H]5O)[C@H]4O[C@@H]4O[C@H](CO)[C@@H](O)[C@H](O)[C@H]4O)[C@@H]2CC[C@]1(O[C@@H]1O[C@H](CO)[C@@H](O)[C@H](O[C@@H]2O[C@H](CO)[C@@H](O)[C@H](O)[C@H]2O)[C@H]1O[C@@H]1O[C@H](CO)[C@@H](O)[C@H](O)[C@H]1O)C3 [Reb M, rebaudioside M]
licorice taste compared to the other samples [1, 3]: stronger licorice taste
Description (taste properties: sweet, licorice and sweet lingering) [1, 3]: Licorice, sweet, lingering
tastes enhanced in the 4% sucrose base [2]: enhancing all sweet, licorice and sweet lingering tastes
Licorice [2]: 1.3
Sweet [2]: 1.6
Sweet Lingering [2]: 0.8

OC[C@H]1O[C@@](CO)(O[C@H]2O[C@H](CO)[C@@H](O)[C@H](O)[C@H]2O)[C@@H](O)[C@@H]1O [Sucrose, sucrose]
Description (taste properties: sweet, licorice and sweet lingering) [1, 3]: Sweet, slightly lingering
lingering taste compared to the others ([1]; 30 ppm test samples in 4% w/w sucrose solution): weaker lingering taste than others

C=C1C[C@@]23CC[C@H]4[C@@](C)(CCC[C@@]4(C)C(=O)O[C@@H]4O[C@H](CO)[C@@H](O)[C@H](O)[C@H]4O[C@@H]4O[C@H](CO)[C@@H](O)[C@H](O)[C@H]4O)[C@@H]2CC[C@]1(O[C@@H]1O[C@H](CO)[C@@H](O)[C@H](O[C@@H]2O[C@H](CO)[C@@H](O)[C@H](O)[C@H]2O)[C@H]1O[C@@H]1O[C@H](CO)[C@@H](O)[C@H](O)[C@H]1O)C3 [Reb D, rebaudioside D]
Description (taste properties: sweet, licorice and sweet lingering) [1, 3]: Sweet, lingering, licorice
Licorice [2]: 1.3
Sweet [2]: 1.5
Sweet Lingering [2]: 0.4

From patent US11976091B2, “Terpene glycoside derivatives and uses thereof” (Firmenich SA, priority 2018, dated 2024)
